# From patent publication US8598114B2, “Antimicrobial compounds” (priority 2007, dated 2013)
# Peptide text beside a SMILES is read from it. * marks the point of attachment. NHPhenethyl = c1ccc(CCN*)cc1
# Tests used:
# [1] = tested on: trypsin; assay: in vitro; format: in vitro ADME; settings: pH 8.6
# Protocol: Measurements and Calculation of Peptide Half-Life
# Each peptide was dissolved in a 0.1 M NH4HCO3 buffer (pH 6.5) to yield a final peptide concentration of 1 mg/ml. A trypsin solution was prepared by dissolving 1 mg of trypsin in 50 ml 0.1 M NH4HCO3 buffer (pH 8.2). For the stability determination, 250 μl freshly made trypsin solution and 250 μl peptide solution were incubated in 2 ml of 0.1 M NH4HCO3 buffer (pH 8.6) at 37° C. on a rocking table. Aliquots of 0.5 ml were sampled at different time intervals, diluted with 0.5 ml water:acetonitrile (60:40 v/v) containing 1% TFA and analysed by RP-HPLC as described above. Samples without trypsin addition taken at 0 h and after 20 h at 37° C. were used as negative controls. Integration of the peak area at 254 nm for samples taken during the first 5 hours of the assay was used to generate the τ1/2.
# [2] = tested on: Str. pyogenes; assay: Minimal inhibitory concentration (Example 6); format: cell-based
# [3] = tested on: MRSA; assay: Minimal inhibitory concentration (Example 6); format: cell-based
# [4] = tested on: E. coli; assay: Minimal inhibitory concentration (Example 6); format: cell-based
# [5] = tested on: S. aureus; assay: Minimal inhibitory concentration (Example 6); format: cell-based
smiles,measurement,setting,value
N=C(N)NCCC[C@H](NC(=O)[C@H](Cc1ccc(-c2cccc3ccccc23)cc1)NC(=O)[C@@H](N)CCCNC(=N)N)C(=O)NCCc1ccccc1 [Compound 3],half-life at 0.1 mg/ml,[1]; isolated enzyme trypsin,20 h
N=C(N)NCCC[C@H](NC(=O)[C@H](Cc1ccc(-c2ccc(-c3ccccc3)cc2)cc1)NC(=O)[C@@H](N)CCCNC(=N)N)C(=O)NCCc1ccccc1 [Compound 5],half-life at 0.1 mg/ml,[1],> 24 h
"N=C(N)NCCC[C@H](NC(=O)[C@H](Cc1c[nH]c2ccccc12)NC(=O)[C@@H](N)CCCNC(=N)N)C(=O)NCCc1ccccc1 [Compound 6, reference compound] (H-Arg-Trp-Arg-NHPhenethyl)",half-life at 0.1 mg/ml,[1]; isolated enzyme trypsin,7 h
"CC(C)(C)c1cc(C(C)(C)C)c2[nH]c(C(C)(C)C)c(C[C@H](NC(=O)[C@@H](N)CCCNC(=N)N)C(=O)N[C@@H](CCCNC(=N)N)C(=O)NCCc3ccccc3Br)c2c1 [—(CH2)2—(2-BrPh), H-Arg-Tbt-Arg-NH(CH)2(2-Br-phenyl)]",Minimal inhibitory concentration Str. pyogenes,[2],3 µg/mL
same,Minimal inhibitory concentration MRSA,[3],3 µg/mL
same,Minimal inhibitory concentration E. coli,[4],6 µg/mL
same,Minimal inhibitory concentration S. aureus,[5],3 µg/mL
